Source: US11040981B2, “Pyrrolotriazine compounds and methods of inhibiting TAM kinases” (Syros Pharmaceuticals, Inc., priority 2017, dated 2021)

Key:
AXL = target: T1, AXL (Homo sapiens, UniProt P30530); assay: TR-FRET kinase activity assay, AXL; assay type: biochemical; details: ATP at Km, 60 minutes
T1 sequence (P30530 26-894): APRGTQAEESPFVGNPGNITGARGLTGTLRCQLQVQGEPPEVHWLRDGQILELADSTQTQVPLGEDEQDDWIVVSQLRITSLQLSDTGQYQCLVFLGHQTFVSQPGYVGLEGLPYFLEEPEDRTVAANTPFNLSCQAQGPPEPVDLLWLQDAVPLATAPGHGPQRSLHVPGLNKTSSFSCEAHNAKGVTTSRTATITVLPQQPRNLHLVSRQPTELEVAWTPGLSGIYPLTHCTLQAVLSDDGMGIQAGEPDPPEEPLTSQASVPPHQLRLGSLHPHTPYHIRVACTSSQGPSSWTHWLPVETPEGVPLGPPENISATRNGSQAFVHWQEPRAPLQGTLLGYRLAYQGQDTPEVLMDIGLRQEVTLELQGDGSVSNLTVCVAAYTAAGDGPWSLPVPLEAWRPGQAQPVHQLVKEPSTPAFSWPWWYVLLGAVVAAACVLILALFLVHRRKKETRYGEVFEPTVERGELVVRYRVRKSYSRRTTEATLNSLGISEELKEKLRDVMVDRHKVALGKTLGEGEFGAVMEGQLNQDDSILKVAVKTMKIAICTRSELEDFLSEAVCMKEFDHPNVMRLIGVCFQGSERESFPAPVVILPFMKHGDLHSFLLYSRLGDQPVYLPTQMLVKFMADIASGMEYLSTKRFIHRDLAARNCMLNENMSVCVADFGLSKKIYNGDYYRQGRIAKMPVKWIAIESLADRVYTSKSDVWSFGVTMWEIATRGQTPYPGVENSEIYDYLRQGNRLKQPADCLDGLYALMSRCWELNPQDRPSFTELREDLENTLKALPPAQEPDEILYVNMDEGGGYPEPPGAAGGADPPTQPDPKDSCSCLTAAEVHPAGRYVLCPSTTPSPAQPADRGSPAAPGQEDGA
Description: (§1) IC50 values for compound inhibition of AXL, FLT3, MERTK and TYRO3 activity were determined by using a TR-FRET activity assay. A polypeptide substrate with a fluorescent label is phosphorylated on a tyrosine by each enzyme, where the now phosphorylated product is bound by a Europium-labeled antibody specific to that phosphorylation site. The proximity between the antibody and the substrate gives a signal known as TR-FRET. As the enzyme is inhibited by compound, less phosphorylated peptide product is made causing a decrease in overall signal.
(§2) Activity assays were performed in a 384-well, small volume, black microplates in an active enzyme volume of 10 μL and final developed volume of 20 μL. Final assay conditions are 50 mM HEPES pH 7.5, 10 mM MgCl2, 1 mM EGTA, 0.01% Brij 35 and 1 mM DTT all at RT. Enzyme, substrate labeled peptide and compound are mixed, and then the reaction is initiated with the addition of ATP at Km concentration for each enzyme. The reaction is allowed to run 60 minutes and then quenched with a 12.5 mM EDTA (ethylenediamine tetraacetic acid) solution. The plate is then developed with the addition of Europium labeled antibody for a final volume of 20 μL and is then incubated for 30 minutes in darkness. Plates are read in a Pherastar plate reader. Data is analyzed in GraphPad PRISM.
(§3) The results of these assays are shown in Table 1, below, wherein “No.” designates compound number (FIG. 1); “A” represents a value of ≤100 nM; “B” a value of >100 nM and ≤1 μM; “C” a value of >1 μM and ≤10 μM; “D” a value of >10 μM; “ND” is not determined. The ratio of Mer to FLT3 is calculated as follows: FLT3 IC50/Mer IC50. “+” represents a ratio of >2.0 and <10; “++” represents a ratio of between 10 and 100; and “+++” represents a ratio of >100.

TYRO3 = target: T2, TYRO3 (Homo sapiens, UniProt Q06418); assay: TR-FRET kinase activity assay, TYRO3; assay type: biochemical; details: ATP at Km, 60 minutes
T2 sequence (Q06418 41-890): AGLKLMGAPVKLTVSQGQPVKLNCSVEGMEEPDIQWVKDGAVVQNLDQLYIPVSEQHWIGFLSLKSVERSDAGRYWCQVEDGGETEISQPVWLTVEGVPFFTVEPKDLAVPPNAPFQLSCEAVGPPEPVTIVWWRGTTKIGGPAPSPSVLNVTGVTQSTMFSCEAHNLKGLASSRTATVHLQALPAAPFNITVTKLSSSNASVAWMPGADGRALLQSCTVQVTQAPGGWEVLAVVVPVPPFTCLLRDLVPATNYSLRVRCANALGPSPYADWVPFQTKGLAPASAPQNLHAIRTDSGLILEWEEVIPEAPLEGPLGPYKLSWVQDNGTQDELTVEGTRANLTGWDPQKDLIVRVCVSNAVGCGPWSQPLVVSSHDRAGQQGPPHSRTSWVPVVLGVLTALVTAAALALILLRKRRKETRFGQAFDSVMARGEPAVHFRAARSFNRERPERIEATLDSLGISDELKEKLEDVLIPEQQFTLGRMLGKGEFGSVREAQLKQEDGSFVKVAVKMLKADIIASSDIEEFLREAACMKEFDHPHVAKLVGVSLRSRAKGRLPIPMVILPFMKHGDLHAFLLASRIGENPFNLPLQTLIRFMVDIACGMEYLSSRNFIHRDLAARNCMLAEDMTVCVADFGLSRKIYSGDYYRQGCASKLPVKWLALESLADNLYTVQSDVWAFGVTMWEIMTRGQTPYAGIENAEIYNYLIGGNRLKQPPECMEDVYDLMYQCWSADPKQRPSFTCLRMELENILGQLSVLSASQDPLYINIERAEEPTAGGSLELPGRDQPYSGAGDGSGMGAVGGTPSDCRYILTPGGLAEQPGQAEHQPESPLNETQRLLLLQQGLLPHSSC
Description: as §1, §2, §3

Row | Compound | IC50 (AXL) | IC50 (TYRO3)
1 | COC[C@H](C)Nc1ncc2c(-c3cncc(C(=O)N4CCN(C)CC4)c3)cc([C@H]3CC[C@H](O)CC3)n2n1 [Compound 234] | 100 to 1000 nM | ≤ 100 nM
2 | COC[C@H](C)Nc1ncc2c(-c3cnn(CC(=O)NC(C)C)c3)cc([C@H]3CC[C@H](O)CC3)n2n1 [Compound 235] | 100 to 1000 nM | ≤ 100 nM
3 | COC[C@H](C)Nc1ncc2c(-c3cnn(CC(=O)N[C@H]4CCOC4)c3)cc([C@H]3CC[C@H](O)CC3)n2n1 [Compound 237] | 100 to 1000 nM | ≤ 100 nM
4 | COC[C@H](C)Nc1ncc2c(-c3cnn(CC(=O)N(C)C)c3)cc([C@H]3CC[C@H](O)CC3)n2n1 [Compound 238] | 100 to 1000 nM | ≤ 100 nM
5 | COC[C@H](C)Nc1ncc2c(-c3cnn(CC(=O)N4CCN(C)CC4)c3)cc([C@H]3CC[C@H](O)CC3)n2n1 [Compound 240] | 100 to 1000 nM | ≤ 100 nM
6 | CNC(=O)Cn1cc(-c2cc([C@H]3CC[C@H](O)CC3)n3nc(N[C@@H](C)COC)ncc23)cn1 [Compound 241] | 100 to 1000 nM | ≤ 100 nM
7 | CNC(=O)c1cncc(-c2cc([C@H]3CC[C@H](O)CC3)n3nc(N[C@@H](C)COC)ncc23)c1 [Compound 245] | 100 to 1000 nM | ≤ 100 nM
8 | COC[C@H](C)Nc1ncc2c(-c3cncc(C(N)=O)c3)cc([C@H]3CC[C@H](O)CC3)n2n1 [Compound 247] | 100 to 1000 nM | ≤ 100 nM
9 | COC[C@H](C)Nc1ncc2c(-c3cn(C[Si](C)(C)C)nn3)cc([C@H]3CC[C@H](O)CC3)n2n1 [Compound 248] | 100 to 1000 nM | ≤ 100 nM
10 | COC[C@H](C)Nc1ncc2c(-c3cn(C)nn3)cc([C@H]3CC[C@H](O)CC3)n2n1 [Compound 250, (trans)-4-(2-(((S)-1-methoxypropan-2-yl)amino)-5-(1-methyl-1H-1,2,3-triazol-4-yl)pyrrolo[2,1-f][1,2,4]triazin-7-yl)cyclohexanol] | 100 to 1000 nM | ≤ 100 nM
11 | COC[C@H](C)Nc1ncc2c(-c3ccc4c(c3)CC(=O)N4)cc([C@H]3CC[C@H](O)CC3)n2n1 [Compound 251] | 100 to 1000 nM | ≤ 100 nM
12 | COC[C@H](C)Nc1ncc2c(-c3ccc4c(c3)CNC4=O)cc([C@H]3CC[C@H](O)CC3)n2n1 [Compound 252] | 100 to 1000 nM | ≤ 100 nM
13 | COCC(C)Nc1ncc2c(-c3cccc(C)n3)cc(C3CCC(O)CC3)n2n1 (centres unmarked) [Compound 253] | 1000 to 10000 nM | ≤ 100 nM
14 | COC[C@H](C)Nc1ncc2c(-c3ccc(N4CCOCC4)nc3)cc([C@H]3CC[C@H](O)CC3)n2n1 [Compound 254] | 100 to 1000 nM | ≤ 100 nM
15 | COC[C@H](C)Nc1ncc2c(-c3cc(C)ccn3)cc([C@H]3CC[C@H](O)CC3)n2n1 [Compound 257] | 1000 to 10000 nM | 100 to 1000 nM
16 | COC[C@H](C)Nc1ncc2c(-c3ccc(C)cn3)cc([C@H]3CC[C@H](O)CC3)n2n1 [Compound 258] | 100 to 1000 nM | ≤ 100 nM
17 | COC[C@H](C)Nc1ncc2c(-c3cn(C)nc3C)cc([C@H]3CC[C@H](O)CC3)n2n1 [Compound 260] | 100 to 1000 nM | ≤ 100 nM

The next lines start with the values.

Row | IC50 (AXL) | IC50 (TYRO3) | Compound
18 | ≤ 100 nM | ≤ 100 nM | COCC(C)Nc1ncc2c(-c3cccc(CN4CCC(F)C4)c3)cc(C3CCC(O)CC3)n2n1 (centres unmarked) [Compound 225]
19 | 100 to 1000 nM | ≤ 100 nM | COC[C@H](C)Nc1ncc2c(-c3ccc(C(=O)N4CCN(C)CC4)nc3)cc([C@H]3CC[C@H](O)CC3)n2n1 [Compound 226]
20 | 100 to 1000 nM | ≤ 100 nM | COC[C@H](C)Nc1ncc2c(-c3ccc(C(=O)N4CCOCC4)nc3)cc([C@H]3CC[C@H](O)CC3)n2n1 [Compound 227]
21 | 100 to 1000 nM | ≤ 100 nM | COC[C@H](C)Nc1ncc2c(-c3ccc(C(=O)NC(C)C)nc3)cc([C@H]3CC[C@H](O)CC3)n2n1 [Compound 228, 5-(7-((1r,4S)-4-hydroxycyclohexyl)-2-(((S)-1-methoxypropan-2-yl)amino)pyrrolo[2,1-f][1,2,4]triazin-5-yl)-N-isopropylpicolinamide]
22 | 100 to 1000 nM | ≤ 100 nM | COC[C@H](C)Nc1ncc2c(-c3ccc(CN4CCOCC4)nc3)cc([C@H]3CC[C@H](O)CC3)n2n1 [Compound 230]
23 | 100 to 1000 nM | ≤ 100 nM | COC[C@H](C)Nc1ncc2c(-c3cncc(C)c3)cc([C@H]3CC[C@H](O)CC3)n2n1 [Compound 231]
24 | 100 to 1000 nM | ≤ 100 nM | COC[C@H](C)Nc1ncc2c(-c3cncc(C(=O)N4CCCC4)c3)cc([C@H]3CC[C@H](O)CC3)n2n1 [Compound 232]
25 | 100 to 1000 nM | ≤ 100 nM | COC[C@H](C)Nc1ncc2c(-c3cncc(C(=O)N4CCOCC4)c3)cc([C@H]3CC[C@H](O)CC3)n2n1 [Compound 233]
26 | ≤ 100 nM | ≤ 100 nM | COC[C@H](C)Nc1ncc2c(-c3cnn(CC(=O)N4CCCC4)c3)cc([C@H]3CC[C@H](O)CC3)n2n1 [Compound 239]
27 | ≤ 100 nM | ≤ 100 nM | COC[C@H](C)Nc1ncc2c(-c3cnn([C@@H]4CCOC4)c3)cc([C@H]3CC[C@H](O)CC3)n2n1 [Compound 242]
28 | ≤ 100 nM | ≤ 100 nM | COC[C@H](C)Nc1ncc2c(-c3cnn([C@H]4CCOC4)c3)cc([C@H]3CC[C@H](O)CC3)n2n1 [Compound 243]
29 | ≤ 100 nM | ≤ 100 nM | CC(CCF)Nc1ncc2c(-c3ccc(CN4CCOCC4)cc3)cc(C3CCC(O)CC3)n2n1 (centres unmarked) [Compound 244]
30 | ≤ 100 nM | ≤ 100 nM | COC[C@H](C)Nc1ncc2c(-c3ccc(C)nc3)cc([C@H]3CC[C@H](O)CC3)n2n1 [Compound 246]
31 | ≤ 100 nM | ≤ 100 nM | COC[C@H](C)Nc1ncc2c(-c3ccc4c(c3)NC(=O)C4)cc([C@H]3CC[C@H](O)CC3)n2n1 [Compound 249]
32 | ≤ 100 nM | ≤ 100 nM | CC(CCOC(F)F)Nc1ncc2c(-c3ccc(CN4CCOCC4)cc3)cc(C3CCC(O)CC3)n2n1 (centres unmarked) [Compound 255]
33 | ≤ 100 nM | ≤ 100 nM | COC[C@H](C)Nc1ncc2c(-c3ccnc(N4CCN(C)CC4)c3)cc([C@H]3CC[C@H](O)CC3)n2n1 [Compound 256]
34 | ≤ 100 nM | ≤ 100 nM | COC[C@H](C)Nc1ncc2c(-c3ccnc(N4CCOCC4)c3)cc([C@H]3CC[C@H](O)CC3)n2n1 [Compound 259]
